From US20120128593A1, “USE OF A MAGNETIC RESONANCE IMAGING MEDIUM COMPRISING HYPERPOLARIZED 13C PYRUVATE FOR THE DETECTION OF INFLAMMATION OR INFECTION” (priority 2010, published 2012) come the findings set out here.

The nature of this data set: T1 relaxation in human full blood. In kind it is physicochemical. Particulars: human full blood at 37° C.

Regarding `CC(=O)C(=O)O` [[1-^13C]pyruvate, ^13C1-pyruvate], the T1 relaxation entry is recorded as “about 42 s”.
